Assay results: PubChem BioAssay (NCI)
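Assay format: 96-well plates, 48-hour exposure. The concentration for 50% growth inhibition is given as GI50. TGI marks complete inhibition of growth.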

How the values were obtained:
Experiment in all cases: growth of human tumour cells (NCI), 48 h
SF-295 CNS = system: SF-295 CNS
SN12C renal = system: SN12C renal
SF-539 CNS = system: SF-539 CNS
SK-MEL-5 melanoma = system: SK-MEL-5 melanoma
OVCAR-5 ovarian = system: OVCAR-5 ovarian
TK-10 renal = system: TK-10 renal
T-47D breast = system: T-47D breast
HT29 colon = system: HT29 colon
HCC-2998 colon = system: HCC-2998 colon
UACC-62 melanoma = system: UACC-62 melanoma

SMILES | GI50 (SF-295 CNS) | TGI (SF-295 CNS) | GI50 (SN12C renal) | TGI (SN12C renal) | GI50 (SF-539 CNS) | TGI (SF-539 CNS) | GI50 (SK-MEL-5 melanoma) | TGI (SK-MEL-5 melanoma) | GI50 (OVCAR-5 ovarian) | TGI (OVCAR-5 ovarian) | GI50 (TK-10 renal) | TGI (TK-10 renal) | GI50 (T-47D breast) | TGI (T-47D breast) | GI50 (HT29 colon) | TGI (HT29 colon) | GI50 (HCC-2998 colon) | TGI (HCC-2998 colon) | GI50 (UACC-62 melanoma) | TGI (UACC-62 melanoma)
C[C@]12CC[C@H]3[C@@H](CCC4=CC(=O)CC[C@@]43C)[C@@H]1CC[C@@H]2c1csc(N)n1 | 1.27 µM | 4.2 µM | 3.57 µM | 24.5 µM | 9.2 µM | 27 µM | 1.69 µM | 5.41 µM | 15 µM | 38.7 µM | 11.3 µM | 43 µM | 2.26 µM | 18.8 µM | 4.41 µM | 18.3 µM | 5.08 µM | 19.6 µM | 2.68 µM | 17.8 µM
O=C1Oc2ccccc2C(=O)/C1=C1/C=C(c2ccccc2)SS1 | – | > 100 µM | – | > 100 µM | – | > 100 µM | – | > 100 µM | – | > 100 µM | – | > 100 µM | – | > 100 µM | – | > 100 µM | – | > 100 µM | – | > 100 µM
O=C1/C(=C/c2ccc(Cl)c(Cl)c2)CN(C(=O)CCN2CCC(=NO)CC2)C/C1=C\c1ccc(Cl)c(Cl)c1 | 1.05 µM | 2.59 µM | 0.597 µM | 1.73 µM | 0.753 µM | 1.97 µM | 1.58 µM | 3 µM | 1.13 µM | 2.74 µM | 1.61 µM | 3.18 µM | 1.1 µM | 3.59 µM | 0.328 µM | 1.25 µM | 0.807 µM | 2.11 µM | 0.664 µM | 1.87 µM
Cc1ccc2c(-c3ccnc(Nc4ccc5c(c4)OCCO5)n3)c(-c3ccc(C(F)(F)F)cc3)nn2n1 | 7.01 µM | > 25 µM | 5.26 µM | > 25 µM | > 18.7 µM | > 25 µM | 2.04 µM | 7.42 µM | 6 µM | > 25 µM | 8.11 µM | > 25 µM | 1.78 µM | > 25 µM | 4.42 µM | > 25 µM | 12.3 µM | > 25 µM | 5.84 µM | > 25 µM
COc1ccc(OC)c(/C=C/c2nc(=S)n(-c3ccc(Cl)cc3)[nH]2)c1 | 4.16 µM | > 100 µM | 6.07 µM | > 100 µM | 4.05 µM | 97.9 µM | 3.58 µM | > 100 µM | 70.3 µM | > 100 µM | 25.8 µM | > 100 µM | 4.51 µM | > 100 µM | 3.67 µM | > 100 µM | 13.3 µM | > 100 µM | 3.11 µM | > 100 µM
COc1ccc2c(c1)C(=O)c1c-2c(Nc2ccccc2OC)nc2ccccc12 | > 100 µM | > 100 µM | 42.1 µM | > 100 µM | > 100 µM | > 100 µM | > 100 µM | > 100 µM | > 100 µM | > 100 µM | > 100 µM | > 100 µM | > 100 µM | > 100 µM | > 100 µM | > 100 µM | > 100 µM | > 100 µM | > 100 µM | > 100 µM
Cn1c([N+](=O)[O-])cnc1C=C1C(=O)c2ccccc2C1=O | 21.2 µM | 77.7 µM | 3.83 µM | 16.1 µM | 2.6 µM | 7.51 µM | 8.67 µM | 21.9 µM | 6 µM | 18.7 µM | 7.07 µM | 21.8 µM | 11.4 µM | 44.6 µM | 7.29 µM | 25.3 µM | 13.5 µM | 32.2 µM | 2.04 µM | 5.75 µM
O=C1NC(=N[C@@H](CO)c2ccccc2)S/C1=C\c1ccc2ncccc2c1 | 14.4 µM | > 25 µM | 8.1 µM | > 25 µM | 5.86 µM | 22 µM | 9.14 µM | > 25 µM | > 25 µM | > 25 µM | 4.92 µM | > 25 µM | 15.5 µM | > 25 µM | 6.63 µM | > 25 µM | 11.2 µM | > 25 µM | 10.4 µM | > 25 µM
COc1cc2c(cc1Nc1nc(N3CCc4ccccc43)c3cc[nH]c3n1)N(C(=O)CN(C)C)CC2 | 4.79 µM | 11.8 µM | 3.05 µM | 7.47 µM | 4.88 µM | 10.8 µM | 4.26 µM | 11 µM | 1.22 µM | 5.63 µM | 1.67 µM | 3.37 µM | 7.91 µM | 16.7 µM | 0.364 µM | 0.731 µM | 3.13 µM | 7.33 µM | 4.71 µM | 9.08 µM
c1ccc2c(c1)SCCCS2 | – | > 100 µM | – | > 100 µM | – | > 100 µM | – | > 100 µM | – | > 100 µM | – | > 100 µM | – | > 100 µM | – | > 100 µM | – | > 100 µM | – | > 100 µM
CNC(=O)c1ncccc1Nc1nc(Nc2cc3c(cc2OC)CCCN3C(=O)CN(C)C)nc2[nH]ccc12 | 1.82 µM | 5.94 µM | 3.36 µM | 7.37 µM | 1.57 µM | 5.13 µM | 0.618 µM | 3.37 µM | 0.325 µM | 4.18 µM | 2.22 µM | 6.7 µM | 3.37 µM | 9.19 µM | 0.0491 µM | 1.25 µM | 0.518 µM | 4.12 µM | 3.07 µM | 6.45 µM
CN[C@@H](C)C(=O)N[C@H]1CN(S(=O)(=O)c2cccc(S(=O)(=O)N3CC[C@H]4CC[C@@H](C(=O)NC(c5ccccc5)c5ccccc5)N4C(=O)[C@@H](NC(=O)[C@H](C)NC)C3)c2)CC[C@H]2CC[C@@H](C(=O)NC(c3ccccc3)c3ccccc3)N2C1=O | 14.4 µM | > 71.4 µM | 16.6 µM | 36 µM | < 0.01 µM | 0.509 µM | 9.56 µM | 34.3 µM | 18.6 µM | 39.9 µM | 55.9 µM | > 100 µM | 23.6 µM | > 100 µM | 20.7 µM | > 48.3 µM | 11 µM | 27.2 µM | 18 µM | 38.9 µM
CSC1=Nc2c(c(C)c(C)n2COC(CO)CO)C2=NC(=O)CN12 | > 100 µM | > 100 µM | > 100 µM | > 100 µM | > 100 µM | > 100 µM | > 100 µM | > 100 µM | > 100 µM | > 100 µM | > 100 µM | > 100 µM | > 100 µM | > 100 µM | > 100 µM | > 100 µM | > 100 µM | > 100 µM | > 100 µM | > 100 µM
